The values that follow come from ChEMBL document CHEMBL1157675, “Anti-inflammatory diterpenes from the seeds of Vitex negundo” (Bioorg Med Chem, 2010).

Calls of active or inactive are those of the source. No cut-off for these calls is given here.

Data set [1] has as its system RAW264.7. The experiment in a line: Antiinflammatory activity in mouse RAW264.7 cells assessed as inhibition of LPS-induced NO production after 24 hrs by Griess reagent method. As to conditions: RAW264.7, 24 h. It counts as functional, cell-based.
Data set [2] has as its system RAW264.7. The experiment in a line: Cytotoxicity against mouse RAW264.7 cells up to 50 uM after 24 hrs by MTT assay. It counts as cell-based. As to conditions: raw264.7, 24 h.
Data set [3] relates to RAW264.7. The experiment in a line: Antiinflammatory activity in LPS-stimulated mouse RAW264.7 cells assessed as reduction of COX2 protein expression at 5 uM after 24 hrs by Western blot analysis relative to control. It counts as functional. As to conditions: for response, % of control at 5 µM: RAW264.7, 24 h, values are per cent of control.
Data set [4] concerns RAW264.7. The experiment in a line: Antiinflammatory activity in LPS-stimulated mouse RAW264.7 cells assessed as reduction of iNOS protein expression at 5 uM after 24 hrs by Western blot analysis relative to control. It counts as functional. As to conditions: RAW264.7, 24 h, values are per cent of control. (Immunoblotting shows a protein as a band on a membrane.)
Data set [5] relates to RAW264.7. The experiment in a line: Antiinflammatory activity in LPS-stimulated mouse RAW264.7 cells assessed as reduction of COX2 protein expression at 50 uM after 24 hrs by Western blot analysis relative to control. As to conditions: RAW264.7, 24 h. It is filed as functional.
Data set [6] has as its system RAW264.7. In words: Antiinflammatory activity in LPS-stimulated mouse RAW264.7 cells assessed as reduction of iNOS protein expression at 50 uM after 24 hrs by Western blot analysis relative to control. It counts as functional. As to conditions: RAW264.7, 24 h.

As usually defined, the IC50 is the concentration that inhibits the measured activity by half. Take `CC(=O)O[C@H]1CC[C@@]2(C)[C@@H](CC[C@@H](C)[C@]23CC/C(=C\C=O)O3)C1(C)C` (relative stereo) [NEGUNDOIN C]: the IC50 with RAW264.7 [1] stood at 0.12 µM. For the same compound, the Activity result in the data set with RAW264.7 [2] was “Non-toxic”. In addition, the response, % of control at 5 µM with RAW264.7 [3] came to 2.06%; in the data set with RAW264.7 [4], 0.4%.
As a reminder, the inhibition is the share of the control response that was lost under treatment. As to `CO[C@H]1OC(=O)C[C@@]12CC[C@@]1(O2)[C@H](C)CC[C@H]2C(C)(C)[C@@H](OC(C)=O)CC[C@@]21C` (relative stereo) [NEGUNDOIN D], the IC50 in the data set with RAW264.7 [1] was determined as 4.39 µM. Also, in the data set with RAW264.7 [2], the Activity result is listed as “Non-toxic”. Also, the inhibition entry in the data set with RAW264.7 [3] is “inactive”. For the same compound, the response, % of control at 5 µM in the data set with RAW264.7 [4] is 62%.
Consider `CC(C)c1ccc(O)c(CC[C@@H]2[C@@H](C)CC[C@H](O)C2(C)C)c1` (relative stereo) [NEGUNDOIN F], for which the IC50 in the data set on RAW264.7 [1] was found to be 1.16 µM. Further, the Activity result in the data set with RAW264.7 [2] is recorded as “Non-toxic”. Besides, the response, % of control at 5 µM was 59.7% in the data set with RAW264.7 [3] and 58.2% in the data set on RAW264.7 [4].
The corresponding values for `CC(=O)O[C@H]1CC[C@@]2(C)[C@@H](CC[C@@H](C)[C@]23CC[C@@]2(CCO[C@H]2O)O3)C1(C)C` (relative stereo) [NEGUNDOIN E] are 0.23 µM, “Non-toxic”, 26.4% and 41%.
Regarding `CC(=O)O[C@H]1CC[C@@]2(C)[C@@H](CC[C@@H](C)[C@]23CC/C(=C\C(=O)O)O3)C1(C)C` (relative stereo) [NEGUNDOIN B], the IC50 in the data set on RAW264.7 [1] is 23.4 µM. Besides, in the data set with RAW264.7 [2], the Activity entry is reported as “Non-toxic”.
For the compound `C=C[C@@]1(C)CCC2C(=C[C@@H](O)[C@H]3C(C)(C)CCC[C@]23CO)C1=O` (relative stereo) [NEGUNDOIN G], the 50% inhibitory concentration (IC50) with RAW264.7 [1] worked out at 0.7 µM. The Activity entry in the data set on RAW264.7 [2] was “Non-toxic”.
With `COC(=O)/C=C1\CC[C@@]2(O1)[C@H](C)CC[C@H]1C(C)(C)[C@@H](OC(C)=O)CC[C@@]12C` (relative stereo) [NEGUNDOIN A], the IC50 in the data set with RAW264.7 [1] was 9.83 µM. Moreover, the Activity entry in the data set on RAW264.7 [2] is recorded as “Non-toxic”. The inhibition result with RAW264.7 [3] is “inactive”. Further, the response, % of control at 5 µM with RAW264.7 [4] was 68.2%.
As for `COc1ccc2c(c1)c(CC(=O)O)c(C)n2C(=O)c1ccc(Cl)cc1` [INDOMETHACIN], the IC50 in the data set with RAW264.7 [1] was 45.5 µM. Also, the inhibition at 50 µM amounted to 59.9% in the data set with RAW264.7 [5] and 86.5% in the data set with RAW264.7 [6].
